SMILES strings stand for the structures. Where only a bound is given, the exact number is not on record here.

Data set [1] is described as follows: Cytotoxicity against human HepG2 cells assessed as reduction in cell viability incubated for 72 hrs by MTT assay. It counts as cell-based.
Data set [2] deals with Leishmania donovani. As to the kind of experiment: Antileishmanial activity against Leishmania donovani MHOM/IN/00/DEVI promastigotes assessed as reduction in parasite growth incubated for 72 hrs by MTT assay. It counts as functional, organism-based.
Data set [3] in a line: Selectivity index, ratio of CC50 for human HepG2 cells to IC50 for Leishmania donovani MHOM/IN/00/DEVI promastigotes. It is filed as functional.
Data set [4] is described as follows: Cytotoxicity against human THP1 cells assessed as reduction in cell viability incubated for 72 hrs by MTT assay. It is filed as cell-based. To be noted: THP-1 cells.
Data set [5] has as its system Leishmania donovani. As to the kind of experiment: Antileishmanial activity against Leishmania donovani MHOM/IN/00/DEVI intracellular amastigotes infected in human THP1 cells assessed as reduction in parasite-infected macrophages incubated for 120 hrs by Giemsa staining based microscopy. It is filed as functional, organism-based. The settings on record: THP-1, 120 h.

Take `CC(C)(C)OC(=O)NCCOCCOCCNc1cc(=O)[nH]c2c([N+](=O)[O-])cccc12`: the CC50 at 72 h in data set [1] was found to be 34.8 µM. Moreover, the concentration for half-maximal inhibition (IC50) in data set [2] is above 50 µM.
`O=c1cc(Oc2ccccc2)c2cccc([N+](=O)[O-])c2[nH]1`: the CC50 at 72 h in data set [1] is above 12.5 µM. Also, in data set [3], the “Ratio CC50/IC50” value is above 0.9. Also, in data set [2], the half-maximal inhibitory concentration (IC50) was 14 µM.
`O=c1cc(Oc2ccc(C(F)(F)F)cc2)c2cccc([N+](=O)[O-])c2[nH]1`: the CC50 at 72 h in data set [1] is above 7.8 µM. Besides, the “Ratio CC50/IC50” value in data set [3] is on record as above 0.9. The IC50 in data set [2] stood at 8.4 µM.
For `O=c1cc(Oc2cccc(Cl)c2)c2cccc([N+](=O)[O-])c2[nH]1`, the IC50 in data set [2] is above 10 µM.
Turning to `O=c1cc(Oc2ccc(Br)cc2)c2cccc([N+](=O)[O-])c2[nH]1`, the IC50 in data set [2] was above 5 µM.
In the case of `COc1cccc(Oc2cc(=O)[nH]c3c([N+](=O)[O-])cccc23)c1`, the IC50 in data set [2] is above 10 µM.
For the molecule `COc1ccc(Oc2cc(=O)[nH]c3c([N+](=O)[O-])cccc23)cc1`, the IC50 in data set [2] was above 10 µM.
With `O=c1cc(Sc2ccc(C(F)(F)F)cc2)c2cccc([N+](=O)[O-])c2[nH]1`, the CC50 at 72 h in data set [4] and in data set [1] was above 12.5 µM each time. Besides, the figures for the IC50 in data set [5] and in data set [2] were above 12.5 µM and 3.8 µM, respectively. Also, the “Ratio CC50/IC50” value in data set [3] is recorded as above 3.3.
On to `O=c1cc(Sc2ccc(Br)cc2)c2cccc([N+](=O)[O-])c2[nH]1`, for which, in data set [1], the CC50 at 72 h is above 3.9 µM. The “Ratio CC50/IC50” value in data set [3] is above 0.9. Further, the concentration for half-maximal inhibition (IC50) in data set [2] was determined as 4.2 µM.
On to `O=c1cc(Oc2cccc(F)c2)c2cccc([N+](=O)[O-])c2[nH]1`, for which the IC50 in data set [2] was above 10 µM.
In the case of `O=c1cc(Sc2ccc(Cl)cc2Cl)c2cccc([N+](=O)[O-])c2[nH]1`, the CC50 at 72 h in data set [1] was above 7.8 µM. Moreover, the “Ratio CC50/IC50” value in data set [3] is above 2.1. The 50% inhibitory concentration (IC50) in data set [2] was 3.8 µM.
As to `COc1ccccc1Oc1cc(=O)[nH]c2c([N+](=O)[O-])cccc12`, the IC50 in data set [2] is above 10 µM.
As for `Cc1ccc(Oc2cc(=O)[nH]c3c([N+](=O)[O-])cccc23)cc1`, the CC50 at 72 h in data set [4] was above 12.5 µM; in data set [1] it was above 25 µM. The IC50 is above 12.5 µM in data set [5] and 6 µM in data set [2]. Also, in data set [3], the “Ratio CC50/IC50” value was above 4.2.
Regarding `Cc1ccccc1Oc1cc(=O)[nH]c2c([N+](=O)[O-])cccc12`, the IC50 in data set [2] was above 10 µM.
Take `Cc1cccc(Oc2cc(=O)[nH]c3c([N+](=O)[O-])cccc23)c1`: the IC50 in data set [2] was above 10 µM.
For `CCCCNc1cc(=O)[nH]c2c([N+](=O)[O-])cccc12`, in data set [1], the CC50 at 72 h was 12.2 µM. In data set [2], the IC50 was determined as 21.4 µM.
`O=c1cc(Oc2ccc(Cl)cc2)c2cccc([N+](=O)[O-])c2[nH]1`: in data set [1], the 50% cytotoxic concentration (CC50) at 72 h was above 3.9 µM. Moreover, the “Ratio CC50/IC50” value in data set [3] is listed as above 1.1. The IC50 in data set [2] was 3.7 µM.
In the case of `Cc1ccccc1Sc1cc(=O)[nH]c2c([N+](=O)[O-])cccc12`, the IC50 in data set [2] is above 10 µM.
Turning to `COc1cccc2c1C(=O)c1c(O)c3c(c(O)c1C2=O)C[C@@](O)(C(=O)CO)C[C@@H]3O[C@H]1C[C@H](N)[C@H](O)[C@H](C)O1` [DOXORUBICIN], in data set [4], the CC50 at 72 h is 0.008 µM.
As to `O=c1cc(Oc2ccccc2Br)c2cccc([N+](=O)[O-])c2[nH]1`, the CC50 at 72 h in data set [1] is above 7.8 µM. Moreover, in data set [3], the “Ratio CC50/IC50” value was above 0.96. Also, the IC50 in data set [2] was found to be 8.1 µM.
Take `O=c1cc(Oc2cccc(Br)c2)c2cccc([N+](=O)[O-])c2[nH]1`: the IC50 in data set [2] is above 10 µM.
Regarding `COc1cccc(Sc2cc(=O)[nH]c3c([N+](=O)[O-])cccc23)c1`, the IC50 in data set [2] was above 10 µM.
With `O=c1cc(Sc2ccccc2Cl)c2cccc([N+](=O)[O-])c2[nH]1`, the CC50 at 72 h in data set [1] is above 1.25 µM. For the same molecule, the “Ratio CC50/IC50” value in data set [3] is above 0.4. Further, the IC50 in data set [2] amounted to 3.5 µM.
Taken in the same sequence, the figures for `O=c1cc(Sc2ccccc2)c2cccc([N+](=O)[O-])c2[nH]1` were above 12.5 µM, above 1.3 and 9.3 µM.
For `N=C(N)c1ccc(OCCCCCOc2ccc(C(=N)N)cc2)cc1` [PENTAMIDINE], the half-maximal cytotoxic concentration (CC50) at 72 h in data set [4] is 31.2 µM. For the same molecule, the IC50 in data set [5] was above 20 µM. The “Ratio CC50/IC50” value in data set [3] is 0.4.
`COc1ccccc1Sc1cc(=O)[nH]c2c([N+](=O)[O-])cccc12`: the concentration for half-maximal inhibition (IC50) in data set [2] is above 10 µM.
Take `Nc1cc(=O)[nH]c2c([N+](=O)[O-])cccc12`: the CC50 at 72 h in data set [1] was above 125 µM. Further, in data set [2], the IC50 was above 50 µM.
Consider `O=c1cc(Sc2ccc(F)cc2)c2cccc([N+](=O)[O-])c2[nH]1`, for which the IC50 in data set [2] is above 10 µM.
Regarding `O=c1cc(N2CCOCC2)c2cccc([N+](=O)[O-])c2[nH]1`, the CC50 at 72 h in data set [1] was 86.2 µM. Besides, the IC50 in data set [2] turned out to be 42.1 µM.
On to `O=c1cc(Oc2ccccc2Cl)c2cccc([N+](=O)[O-])c2[nH]1`, for which, in data set [2], the IC50 was above 10 µM.
With `O=c1cc(Oc2ccccc2F)c2cccc([N+](=O)[O-])c2[nH]1`, the IC50 in data set [2] is above 10 µM.
Same read-out and setting: to `O=c1cc(Sc2ccc(Cl)cc2)c2cccc([N+](=O)[O-])c2[nH]1` belongs above 10 µM.
Regarding `O=c1cc(Oc2cccc(C(F)(F)F)c2)c2cccc([N+](=O)[O-])c2[nH]1`, the CC50 at 72 h in data set [1] is above 7.8 µM. For the same molecule, the “Ratio CC50/IC50” value in data set [3] is above 0.7. Besides, in data set [2], the IC50 was above 10 µM.
Take `O=c1cc(N2CCNCC2)c2cccc([N+](=O)[O-])c2[nH]1`: the CC50 at 72 h in data set [1] came out at 2.4 µM. The IC50 in data set [2] was above 50 µM.
Take `Cc1cc(Oc2cc(=O)[nH]c3c([N+](=O)[O-])cccc23)ccc1Cl`: in data set [1], the CC50 at 72 h was above 15.6 µM. The “Ratio CC50/IC50” value in data set [3] is listed as above 2.6. The IC50 in data set [2] was found to be 6 µM.
Take `COc1ccc(Sc2cc(=O)[nH]c3c([N+](=O)[O-])cccc23)cc1`: in data set [2], the IC50 is above 10 µM.
With `Cc1ccc(Sc2cc(=O)[nH]c3c([N+](=O)[O-])cccc23)cc1`, the IC50 in data set [2] was above 10 µM.
With `O=c1cc(Sc2cccc(F)c2)c2cccc([N+](=O)[O-])c2[nH]1`, the IC50 in data set [2] is above 10 µM.
Consider `O=c1cc(Sc2ccccc2C(F)(F)F)c2cccc([N+](=O)[O-])c2[nH]1`, for which the CC50 at 72 h in data set [1] is above 7.8 µM. The “Ratio CC50/IC50” value in data set [3] was above 2.22. Moreover, the IC50 in data set [2] amounted to 3.5 µM.
Consider `O=c1cc(Nc2ccccc2)c2cccc([N+](=O)[O-])c2[nH]1`, for which the CC50 at 72 h in data set [1] was determined as 1.8 µM. Further, the IC50 in data set [2] was above 50 µM.
Take `O=c1cc(Sc2cccc(Cl)c2)c2cccc([N+](=O)[O-])c2[nH]1`: the IC50 in data set [2] was above 10 µM.
In the case of `NCCOCCOCCNc1cc(=O)[nH]c2c([N+](=O)[O-])cccc12`, the CC50 at 72 h in data set [1] is 123 µM. Further, in data set [2], the half-inhibitory concentration (IC50) is above 50 µM.
Turning to `O=c1cc(Sc2cccc(C(F)(F)F)c2)c2cccc([N+](=O)[O-])c2[nH]1`, the IC50 in data set [2] was above 10 µM.
As for `O=c1cc(Sc2ccccc2F)c2cccc([N+](=O)[O-])c2[nH]1`, in data set [2], the 50% inhibitory concentration (IC50) is above 10 µM.
On to `O=c1cc(Oc2ccccc2C(F)(F)F)c2cccc([N+](=O)[O-])c2[nH]1`, for which the cytotoxic concentration (CC50) at 72 h in data set [1] is above 15.6 µM. The “Ratio CC50/IC50” value in data set [3] is on record as above 1.6. For the same molecule, in data set [2], the 50% inhibitory concentration (IC50) was determined as 10 µM.
`Nc1ccccc1Sc1cc(=O)[nH]c2c([N+](=O)[O-])cccc12`: in data set [2], the IC50 is above 10 µM.
